Assays:
Format in all cases: in vivo
[1] = Oral absorption in rats: plasma level by HPLC, AUC; settings: equimolar amount, in 0.5% aqueous methylcellulose solution, area under plasma level vs time curve
Description: (§1) The compound of Synthesis Example 1, the compound of Example 7, and the compound of Example 20 were suspended or dissolved in a 0.5% aqueous methylcellulose solution. The resultant solutions were orally administered in an equimolar amount to dogs and rats. After the administration, the amount of each compound contained in plasma of each animal individual was quantitatively determined by HPLC. The absorption in each specimen was assayed by the area under a medicament level of plasma vs time curve (AUC). As a result, AUCs obtained by the compounds of Examples 7 and 20 as prodrugs were 3 to 4 times higher for the dog and 3 to 7 times higher for the rat compared with the compound of Synthesis Example 1 as an activator body.

[2] = Oral absorption in dogs: plasma level by HPLC, AUC; settings: equimolar amount, in 0.5% aqueous methylcellulose solution, area under plasma level vs time curve
Description: as §1

ICR male mice = ICR male mice (5 weeks old), dose of 2 g/kg, suspension in 0.5% aqueous methylcellulose solution
Excerpt: Acute Toxicity Test by Single Administration
The compound of Example 20 was homogeneously suspended in a 0.5% aqueous methylcellulose solution. The suspension was forcibly orally administered to ICR male mice (5 weeks old).

Row | SMILES | AUC Rat [1] [µmol·h/L] | AUC Dog [2] [µmol·h/L] | Survival and abnormality after single forced oral administration (ICR male mice)
1 | COc1cc2[nH]c(=O)c3nn(COC(=O)OC(C)C)nc3c(=O)c2cc1OC [Example 7, 2-(Isopropoxycarbonyloxymethyl)-7,8-dimethoxy-4(5H),10-dioxo-2H-1,2,3-triazolo[4,5-c][1]benzazepine] | 0.6 ± 0.1 | 0.9 ± 0.1 | –
2 | COc1cc2[nH]c(=O)c3nn(C(OC(=O)OC(C)C)C(C)C)nc3c(=O)c2cc1OC (stereo not shown) [Example 20, 2-(1-Isopropoxycarbonyloxy-2-methylpropyl)-7,8-dimethoxy-4(5H),10-dioxo-2H-1,2,3-triazolo[4,5-c][1]benzazepine] | 1.4 ± 0.1 | 1.2 ± 0.3 | all the mice survived and developed no abnormality
3 | COc1cc2[nH]c(=O)c3nn[nH]c3c(=O)c2cc1OC [Synthesis Example 1, 7,8-Dimethoxy-4(5H),10-dioxo-1H-1,2,3-triazolo[4,5-c][1]benzazepine, reference compound] | 0.2 ± 0.1 | 0.3 ± 0.1 | –

From patent US7238812B2, “Tricyclic triazolobenzazepine derivatives, process for producing the same, and antiallergic agents” (Meji Seika Kaisha, Ltd., priority 1997, dated 2007)
